From patent US12552753B2, “Methods and compositions for targeting Tregs using CCR8 inhibitors” (Nanjing Immunophage Biomedical Co., Ltd., priority 2020, dated 2026) come the findings set out here.

Where a name gives a salt, the structure may show the parent alone.

CCR8, sequence (P51685 whole entry, the tested form may be a part): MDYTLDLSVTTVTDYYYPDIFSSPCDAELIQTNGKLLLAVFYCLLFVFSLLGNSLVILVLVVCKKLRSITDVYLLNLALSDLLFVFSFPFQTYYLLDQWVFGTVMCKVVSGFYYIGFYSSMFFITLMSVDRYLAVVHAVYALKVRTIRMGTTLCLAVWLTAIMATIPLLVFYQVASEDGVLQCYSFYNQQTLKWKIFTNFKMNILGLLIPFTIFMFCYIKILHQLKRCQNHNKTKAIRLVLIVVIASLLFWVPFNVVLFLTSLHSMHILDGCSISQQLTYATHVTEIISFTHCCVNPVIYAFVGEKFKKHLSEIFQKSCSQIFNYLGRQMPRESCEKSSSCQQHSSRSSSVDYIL

The first assay concerns the target CCR8 (Homo sapiens, UniProt P51685). As to the kind of experiment: Tango assay (Tango-CCR8-Gal4-CHO-K1 cells, CCL1-stimulated, ONE-Glo luminescence). Particulars: Tango Assay IC50, Inhibition of CCR8 Tango cell in vitro.
Procedure: The Tango cell line was used to monitor antagonists-mediated receptor inactivation.
Tango cells (Tango-CCR8-Gal4-CHO-K1 cells constructed by Genomeditech) were passaged in complete medium (F12K, 10% FBS, 1% penicillin-streptomycin, 4 μg/ml puromycin, 4 μg/ml blasticidin and 100 μg/ml hygromycin) in incubator (37° C., 5% CO2).
Twenty-four hours before the seed, cells were cultured in 10 or 15 cm dish at a density of 30% confluence in culture medium (F12K, 10% FBS, 1% penicillin-streptomycin).
Cells were suspended in starving medium (F12K, 1% FBS, 1% penicillin-streptomycin) before being seeded into black/clear 96 wells (1×10^4 cells/70 μl/well) and incubated for 6 hours (37° C., 5% CO2). Different concentration of compound, dissolved in DMSO, was into the 96-well plates, with 50 μl in each well, and incubation continued for 1 hour at 37° C.
After the incubation, the medium was removed and the 96-well plate was put in −80° C. freezer for an hour or longer. The plate and the ONE-Glo reagent (Promega, Catalog Number: E6110) which was frozen in −80° C., were taken out and rewarmed to room temperature. The ONE-Glo working reagent was prepared by mixing ONE-Glo reagent with F12K (no FBS) (1:2), and 40 μl ONE-Glo working reagent was added into each well. After incubating for 10 minutes at room temperature, the plate was read using microplate luminescence reader at 560 nm.
The microplate reader records luminescence in relative luminescence units (RLU).
As to `Cc1ccccc1C(=O)Nc1ccc(S(=O)(=O)N[C@H](C)C2CCN(C(=O)OC(C)(C)C)CC2)c(Cl)c1C` [Compound 178, (R)-tert-butyl 4-(1-(2-chloro-3-methyl-4-(2-methylbenzmido)phen-ylsulfonamido)ethyl)pi-perridine-1-carboxylate], inhibition was half-maximal at 378 nM (IC50).

With `CCCN1CCN(c2ccc(C)c(NS(=O)(=O)c3ccc(NC(=O)c4ccccc4C)c4ccccc34)c2)CC1` [Compound 93, 2-methyl-N-(4-(N-(2-methyl-5-(4-propylpiperazin-1-yl)phenyl)sulfamoyl)naphthalen-1-yl)benzamide], the IC50 – broadly, the concentration at which inhibition is half-maximal – was > 10000 nM.

The compound `Cc1cc(S(=O)(=O)NCC2CCN(C)CC2)ccc1NC(=O)c1ccccc1C` [Compound 238, 2-methyl-N-(2-methyl-4-(N-((1-methylpiperidin-4-yl)methyl)sulfa-moyl)phenyl)benza-mide] showed an IC50 of 369 nM.

Compound `Cc1ccccc1C(=O)Nc1ccc(S(=O)(=O)NC(C)C(C)(C)C)c2ccccc12` (centres unmarked) [Compound 82, N-(4-(N-(3,3-dimethylbutan-2-yl)sulfamoyl)naphthalen-1-yl)-2-methylbenzamide] displayed an IC50 of 33 nM.

For the compound `Cc1cc(S(=O)(=O)NC(C)C2CCNCC2)ccc1NC(=O)c1ccccc1Cl` (centres unmarked) [Compound 255, 2-chloro-N-(2-methyl-4-(N-(1-(piperidin-4-yl)ethyl)sulfamoyl)phenyl)benzamide], inhibition was half-maximal at 30 nM (IC50).

`Cc1ccccc1C(=O)Nc1ccc(S(=O)(=O)NC(C)c2ccccc2N)c2ccccc12` (centres unmarked) [Compound 124, N-(4-(N-(1-(2-aminophenyl)ethyl)sul-famoyl)naphthalen-1-yl)-2-methylbenzamide]: inhibition was half-maximal at 832 nM (IC50).

On to `CC(NS(=O)(=O)c1ccc2c(c1)C(=O)NC2=O)C1CC2CCC1CC2` (centres unmarked) [Compound 137, N-(1-(bicyclo[2.2.2]octan-2-yl)ethyl)-1,3-dioxoisoindoline-5-sulfonamide], for which the IC50 is > 10000 nM.

With `CCOC(=O)N1CCCC(C(=O)NS(=O)(=O)c2ccc(NC(=O)c3ccccc3C)c3ccccc23)C1` (centres unmarked) [Compound 5, ethyl 3-(((4-(2-methylbenzamido)naph-thalen-1-yl)sulfonyl)carbamoyl) piperidine-1-carboxylate], the IC50 was > 10000 nM.

With `Cc1ccccc1C(=O)Nc1ccc(S(=O)(=O)N[C@H](C)C2CCNCC2)cc1Cl` [Compound 165A, (R)-N-(2-chloro-4-(N-(1-(piperidin-4-yl)ethyl)sulfamoyl)phen-yl)-2-methylbenzamide hydrochloride], the IC50 turned out to be 12 nM.

For `CCCN1CCN(c2cccc(NS(=O)(=O)c3ccc(NC(=O)c4ccccc4C)c4ccccc34)c2C)CC1` [Compound 2, 2-methyl-N-(4-(N-(2-methyl-3-(4-propylpiperazin-1-yl)phenyl)sulfamoyl)naphthalen-1-yl)benzamide], the IC50 was > 10000 nM.

As for `Cc1cc(S(=O)(=O)N[C@H](C)C2CCNCC2)ccc1N1C(=O)c2ccccc2C1=O` [Compound 122A, (R)-4-(1,3-dioxoisoindolin-2-yl)-3-methyl-N-(1-(piperidin-4-yl)ethyl)benzenesulfon-amide hydrochloride], the IC50 is > 10000 nM.

In the case of `O=S(=O)(NC1CCOCC1)c1ccc(-c2nc3ccccc3[nH]2)cc1` [Compound 109, 4-(1H-benzo[d]imidazol-2-yl)-N-(tetrahydro-2H-pyran-4-yl)benzenesulfonamide], the IC50 is > 10000 nM.

In the case of `CCCC(=O)N1CCC(NS(=O)(=O)c2ccc(Nc3cc(C)ncn3)c3ccccc23)CC1` [Compound 116, N-(1-butyrylpiperidin-4-yl)-4-((6-methylpyrimidin-4-yl)amino)naphthalene-1-sulfonamide], the IC50 is > 10000 nM.

`CCOC(=O)C(C)(C)C(C)NS(=O)(=O)c1ccc(NC(=O)c2ccccc2C)c(C)c1` (centres unmarked) [Compound 232, ethyl 2,2-dimethyl-3-(3-methyl-4-(2-methylbenzamido)phenylsulfonamido) butanoate] gave an IC50 of 685 nM.

For the compound `CN(C)CC(=O)N1CCOc2ccc(NS(=O)(=O)c3ccc4ccccc4c3)cc21` [Compound 22, N-(4-(2-(dimethylamino)acetyl)-3,4-dihydro-2H-benzo[b][1,4]oxazin-6-yl)naphthalene-2-sulfonamide], the IC50 is > 10000 nM.

Turning to `Cc1cc(S(=O)(=O)N(C)[C@H](C)C2CCNCC2)ccc1NC(=O)c1ccccc1C` [Compound 237A, (R)-2-methyl-N-(2-methyl-4-(N-methyl-N-(1-(piperidin-4-yl)ethyl)sulfamoyl)phenyl)benzamide hydrochloride], the IC50 is > 100000 nM.

`Cc1ccccc1C(=O)Nc1cc(C)c(S(=O)(=O)N[C@H](C)C2CCN(C)CC2)cc1Cl` [Compound 267A, (R)-N-(2-chloro-5-methyl-4-(N-(1-(1-methylpiperidin-4-yl)ethyl)sulfamoyl)phenyl)-2-methylbenzamide hydrochloride] showed an IC50 of 2 nM.

For `CC(=O)N1CCC(C(C)NS(=O)(=O)c2ccc(NC(=O)c3ccccc3C)c3ccccc23)CC1` (centres unmarked) [Compound 62, N-(4-(N-(1-(1-acetylpiperidin-4-yl)ethyl)sulfamoyl)naph-thalen-1-yl)-2-methylbenzamide], it took 705 nM to reach half-maximal inhibition (IC50).

For the compound `Cc1ccccc1C(=O)Nc1ccc(S(=O)(=O)N[C@H](C)C2CCNCC2)cc1F` [Compound 190A, (R)-N-(2-fluoro-4-(N-(1-(piperidin-4-yl)ethyl)sulfamoyl)phen-yl)-2-methylbenzmaide hydrochloride], the IC50 came out at 58 nM.

Turning to `Cc1ccccc1C(=O)Nc1cc(F)c(S(=O)(=O)N[C@@H](C)C2CCNCC2)cc1Cl` [Compound 242B, (S)-N-(2-chloro-5-fluoro-4-(N-(1-(piperidin-4-yl)ethyl)sulfamoyl)phenyl)-2-methylbenzamide hydrochloride], the IC50 is > 100000 nM.

Consider `Cc1ccccc1C(=O)Nc1ccc(S(=O)(=O)NC(C)C2CCCCN2)c2ccccc12` (centres unmarked) [Compound 69A, 2-methyl-N-(4-(N-(1-(piperidin-2-yl)ethyl)sulfamoyl)naph-thalen-1-yl)benzamide], for which the IC50 is > 10000 nM.

The compound `Cc1ccccc1C(=O)Nc1ccc(S(=O)(=O)NC(C)C23CCN(CC2)CC3)c2ccccc12` (centres unmarked) [Compound 131, 2-methyl-N-(4-(N-(1-(quinuclidin-4-yl)ethyl)sulfamoyl)naphthalen-1-yl)benzamide] returned an IC50 of 303 nM.

In the case of `Cc1ccccc1C(=O)Nc1ncc(S(=O)(=O)N[C@H](C)C2CCNCC2)cc1C` [Compound 199A, (R)-2-methyl-N-(3-methyl-5-(N-(1-(piperidin-4-yl)ethyl)sulfamoyl)pyridin-2-yl)benzamide hydrochloride], the IC50 is 438 nM.

With `Cc1cc(S(=O)(=O)N[C@H](C)C2CCN(CC(F)(F)F)CC2)ccc1NC(=O)c1ccccc1C` [Compound 206, (R)-2-methyl-N-(2-methyl-4-(N-(1-(1-(2,2,2-trifluoroethyl)piperidin-4-yl)ethyl)sulfamoyl)phenyl)benzamide], half-maximal inhibition (IC50) was put at 61 nM.

`Cc1ccccc1C(=O)Nc1ccc(S(=O)(=O)NC(C)C2CCCN(C(=O)CN)C2)c2ccccc12` (single isomer, unassigned) [Compound 156A, N-(4-(N-(1-(1-(2-ammoacetyl)piperidin-3-yl)ethyl)sulfamoyl)naph-thalen-1-yl)-2-methylbenzamide] returned a half-inhibitory concentration (IC50) of 85 nM.

In the case of `Cc1cc(S(=O)(=O)N[C@H](C)C2CCN(C)CC2)c(F)cc1NC(=O)c1ccccc1C` [Compound 262, (R)-N-(5-fluoro-2-methyl-4-(N-(1-(1-methylpiperidin-4-yl)ethyl)sulfamoyl)phenyl)-2-methylbenzamide], the IC50 is 5 nM.

`Cc1cc(S(=O)(=O)N[C@H](C)C2CCN(C(=O)OC(C)(C)C)CC2)c(C)cc1NC(=O)c1ccccc1C` [Compound 285, tert-butyl (R)-4-(1-((2,5-dimethyl-4-(2-methylbenzamido)phenyl)sulfonamido)ethyl)piperidine-1-carboxylate]: the IC50 was > 100000 nM.

For the compound `Cc1ccccc1C(=O)Nc1ccc(S(=O)(=O)NC(C)c2nccs2)c2ccccc12` (centres unmarked) [Compound 56, 2-methyl-N-(4-(N-(1-(thiazol-2-yl)ethyl)sulfamoyl)naph-thalen-1-yl)benzamide], the IC50 was found to be 2790 nM.

`Cc1ccccc1C(=O)Nc1ccc(S(=O)(=O)N[C@@H](C)C2CCCCC2)c2ccccc12` [Compound 58, (S)-N-(4-(N-(1-cyclohexylethyl)sulfamo-yl)naphthalen-1-yl)-2-methylbenzamide] came in with an IC50 of 12 nM.

In the case of `CC(=O)Nc1ccccc1COc1ccc(S(=O)(=O)NC(C)C2CCCCC2)c2ccccc12` (centres unmarked) [Compound 151, N-(2-(((4-(N-(1-cyclohexylethyl)sulfamoyl)naphthalen-1-yl)oxy)methyl)phenyl)acetamide], the IC50 was 1360 nM.

Turning to `CCCN1CCN(c2ccc(F)c(NS(=O)(=O)c3ccc(NC(=O)c4ccccc4C)c4ccccc34)c2)CC1` [Compound 95, N-(4-(N-(2-fluoro-5-(4-propylpiperazin-1-yl)phenyl)sulfamoyl)naphthalen-1-yl)-2-methylbenzamide], the IC50 was > 10000 nM.

For `Cc1ccccc1C(=O)Nc1cc(F)c(S(=O)(=O)NC2CCNCC2)cc1Cl` [Compound 311, N-(2-chloro-5-fluoro-4-(N-(piperidin-4-yl)sulfamoyl)phenyl)-2-methylbenzamide hydrochloride], the IC50 is > 100000 nM.

The same assay, now with this note: read-out: Tango Assay IC50, Inhibition of CCR8 Tango cell in vitro.
Turning to `Cc1ccccc1C(=O)Nc1ccc(S(=O)(=O)NC(C)C2CCCN(C(=O)[C@H](C)NC(=O)OC(C)(C)C)C2)c2ccccc12` (single isomer, unassigned) [Compound 157D], the IC50 was > 10000 nM.

As to `Cc1ccccc1C(=O)Nc1ccc(S(=O)(=O)Nc2ccc3c(c2)C(=O)N(CCN(C)C)CCO3)c2ccccc12` [Compound 96, N-(4-(N-(4-(2-(dimethylamino)ethyl)-5-oxo-2,3,4,5-tetrahydrobenzo[f][1,4]oxazepin-7-yl)sulfamoyl)naphthalen-1-yl)-2-methylbenzamide], the IC50 is > 10000 nM.

Turning to `COC1CCC([C@@H](C)NS(=O)(=O)c2ccc(NC(=O)c3ccccc3C)c(C)c2)CC1` (single isomer, unassigned) [Compound 293B, N-(4-(N-(1-(4-methoxycyclohexyl)ethyl)sulfamoyl)-2-methylphenyl)-2-methylbenzamide], the IC50 came to 46 nM.
